# From patent US20050130989A1, “N-arylheteroaromatic products compositions containing them and use thereof” (Aventis Pharma S. A., priority 2003, published 2005)
# Structures can show the parent of a compound that is named as a salt. Where two headings read alike, the source gives them in different places.
# Experiments:
# tubulin = target: T1, tubulin (Sus scrofa, UniProt P02550+P02554); assay: Evaluation of the inhibition of tubulin polymerization (turbidimetry); type: biochemical, pig; settings: tubulin 10 μm (1 mg/ml), 37° C., turbidity at 350 nm; concentration that inhibits the rate of polymerization by 50%; read-out: Inhibition of tubulin polymerization IC 50 (μm)
# T1 construct: Tubulin is purified from pig brain according to published methods; from tissue; host or cells: pig brain
# T1 sequence (P02550 whole entry): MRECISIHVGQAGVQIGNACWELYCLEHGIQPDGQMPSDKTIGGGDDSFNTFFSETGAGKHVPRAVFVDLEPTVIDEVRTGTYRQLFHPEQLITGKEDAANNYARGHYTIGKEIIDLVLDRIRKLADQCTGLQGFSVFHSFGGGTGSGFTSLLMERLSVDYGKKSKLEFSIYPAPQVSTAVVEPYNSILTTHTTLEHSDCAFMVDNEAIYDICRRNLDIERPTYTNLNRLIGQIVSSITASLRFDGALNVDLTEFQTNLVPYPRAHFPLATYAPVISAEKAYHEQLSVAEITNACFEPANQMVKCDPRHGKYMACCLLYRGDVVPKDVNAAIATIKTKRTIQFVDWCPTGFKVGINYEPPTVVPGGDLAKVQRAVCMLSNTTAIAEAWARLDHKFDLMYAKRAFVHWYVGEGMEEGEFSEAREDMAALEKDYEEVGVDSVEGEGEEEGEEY
# T1 sequence (P02554 whole entry): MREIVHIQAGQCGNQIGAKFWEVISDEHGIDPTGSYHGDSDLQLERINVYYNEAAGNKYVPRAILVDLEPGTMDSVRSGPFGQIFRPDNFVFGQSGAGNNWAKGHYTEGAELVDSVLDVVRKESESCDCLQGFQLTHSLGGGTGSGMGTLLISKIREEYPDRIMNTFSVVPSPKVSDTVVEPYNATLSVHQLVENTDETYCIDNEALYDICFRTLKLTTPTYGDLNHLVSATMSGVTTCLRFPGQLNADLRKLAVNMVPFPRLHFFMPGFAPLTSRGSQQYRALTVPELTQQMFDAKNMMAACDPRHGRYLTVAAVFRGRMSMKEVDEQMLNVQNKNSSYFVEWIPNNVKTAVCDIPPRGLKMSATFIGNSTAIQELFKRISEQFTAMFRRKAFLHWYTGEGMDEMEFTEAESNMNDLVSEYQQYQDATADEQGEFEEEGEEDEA
# Protocol: Tubulin is purified from pig brain according to published methods (Shelanski et al., 1973, Proc. Natl. Acad. Sci. USA, 70, 765-768. Weingarten et al., 1975, Proc. Natl. Acad. Sci. USA, 72, 1858-1862). Briefly, the brains are ground and centrifuged in an extraction buffer. The tubulin contained in the supernatant of the extract undergoes two successive cycles of polymerization at 37° C. and depolymerization at 4° C., before being separated from the MAPs (Microtubule Associated Proteins) by chromatography on a phosphocellulose P11 column (Whatman). The tubulin thus isolated is more than 95% pure. It is stored in a buffer known as RB/2 30% glycerol, the composition of which is 50 mM MES-NaOH [2-(N-morpholino)ethanesulfonic acid], pH 6.8; 0.25 mM MgCl2; 0.5 mM EGTA; 30% glycerol (v/v), 0.2 mM GTP (guanosine-5′-triphosphate).
# The polymerization of tubulin to microtubules is monitored by turbidimetry as follows: the tubulin is adjusted to a concentration of 10 μm (1 mg/ml) in RB/2 30% glycerol buffer to which 1 mM GTP and 6 mM MgCl2 are added. The polymerization is triggered by an increase in temperature from 6° C. to 37° C. in a cuvette with an optical path length of 1 cm, placed in a UVIKON 931 spectrophotometer (Kontron) equipped with a thermostatically maintained cuvette holder. The increase in the turbidity of the solution is monitored at 350 nm.
# The products are dissolved at 10 mM in DMSO and added at variable concentrations (0.5 to 10 μm) to the tubulin solution before polymerization. The IC50 value is defined as the concentration of product that inhibits the rate of polymerization by 50%.
# HCT116 cells = assay: Inhibition of proliferation of the human colon tumor line HCT116 ([14C]-thymidine incorporation); type: cell-based; settings: Homo sapiens, read-out: Inhibition of HCT116 proliferation IC 50 (μm)
# Protocol: The proliferation of HCT116 cells is evaluated by measuring the incorporation of [^14C]-thymidine in the following manner. The HCT 116 cells (obtained from the ATCC) are cultured in a DMEM medium (Gibco) containing 10% fetal calf serum and antibiotics (1% penicillin, 1% streptomycin). To perform the proliferation test, the cells are inoculated in cytostar 96-well microplates (Amersham), at a rate of 5000 cells per well. [^14C]-thymidine (0.1 μCi/well) and the products to be evaluated are then added. Variable concentrations of products up to 10 μm are used; the DMSO (solvent used to dissolve the products) should not exceed 0.5% in the medium. 48 hours after incubation at 37° C., the radioactivity incorporated into the cells is measured by counting the plate in a TRI-LUX counter (Wallac). The IC50 is defined as the concentration of product that reduces the radioactivity by 50% compared with an untreated control. A product whose IC50 is less than 3 μm is considered cytotoxic.
# [1] = HCT-116, 48 h, 48 hours at 37° C.
Compound,IC50 (tubulin) [nM],IC50 (HCT116 cells; [1]) [nM],"IC50 (HCT116 cells; HCT-116, 48 hours at 37° C.) [nM]"
Cc1cc(C(=O)N2CCN(c3ccc4c(c3)OCCO4)CC2)n(-c2ccccc2)n1 [3/14],15000,352,
"O=C(c1cccn1-c1ccccc1)N1CCN(c2cccnc2)CC1 [Example E46, (1-Phenyl-1H-pyrrol-2-yl)[4-(pyrid-3-yl)piperazin-1-yl]methanone hydrochloride]",14500,1240,
COc1cccc(-n2nc(C)cc2C(=O)N2CCN(c3cccc(C(F)(F)F)c3)CC2)c1 [3/133],6200,214,
Cc1cc(C(=O)N2CCN(c3cccc(Cl)c3Cl)CC2)n(-c2ccc(Cl)cc2)n1 [3/129],< 25000,2560,
Cc1cc(C(=O)N2CCN(c3nccs3)CC2)n(-c2ccccc2)n1 [Example E115],< 25000,3240,
COc1cccc(N2CCN(C(=O)c3cc(C)nn3-c3ccccc3)CC2)c1 [3/10],2000,25,
Cc1cc(C(=O)N2CCN(c3cccc(C(F)(F)F)c3)CC2)n(-c2ccc(F)cc2)n1 [3/23],3000,434,
COc1ccc(Cl)cc1N1CCN(C(=O)c2cc(C)nn2-c2ccc(Cl)cc2)CC1 [3/75],17000,468,
COc1cccc(-n2nc(C)cc2C(=O)N2CCN(c3cccc4ccccc34)CC2)c1 [3/138],< 25000,20000,
"COc1cc(OC)cc(N2CCN(C(=O)c3cc(N4CCCC4)nn3-c3ccccc3)CC2)c1 [Example E93, [4-(3,5-Dimethoxyphenyl)piperazin-1-yl][2-phenyl-5-(pyrrolidin-1-yl)-2H-pyrazol-3-yl]methanone]",2020,6.3,
Cc1cc(C(=O)N2CCN(c3ccccc3C(F)(F)F)CC2)n(-c2ccccc2F)n1 [3/145],10000,1510,
Cc1ccc(-n2nc(C)cc2C(=O)N2CCN(c3cccc(C(F)(F)F)c3)CC2)cc1 [3/131],3100,135,
"O=C(c1cc(COCc2ccccc2)nn1-c1ccccc1)N1CCN(c2cccc(Cl)c2)CC1 [Example E80, (5-Benzyloxymethyl-2-phenyl-2H-pyrazol-3-yl)[4-(3-chlorophenyl)piperazin-1-yl]methanone]",4400,1130,
Cc1cccc(N2CCN(C(=O)c3cc(C)nn3-c3ccccc3)CC2C)c1 (stereo not shown) [3/109],8000,4330,
CCc1ccccc1N1CCN(C(=O)c2cc(C)nn2-c2ccc(F)cc2)CC1 [3/104],5000,285,
"Cc1cc(C(=O)N2CCN(c3cccc(Cl)c3)CC2)n(-c2cnccn2)n1 [Example E36, [4-(3-Chlorophenyl)piperazin-1-yl](5-methyl-2-pyrazin-2-yl-2H-pyrazol-3-yl)-methanone]",20000,939,
"Cc1cc(C(=O)N2CCN(c3cccc(NCc4ccccc4)c3)CC2)n(-c2ccccc2)n1 [Example E32, [4-(3-Phenylmethylaminophenyl)piperazin-1-yl](5-methyl-2-phenyl-2H-pyrazol-3-yl)methanone hydrochloride]",3100,514,
Cc1cc(C(=O)N2CCN(c3cccc(C(F)(F)F)c3)CC2)n(-c2cccc(Cl)c2)n1 [3/121],3300,51,
COc1cccc(-n2nc(C)cc2C(=O)N2CCN(c3ccc4c(c3)OCCO4)CC2)c1 [3/140],< 25000,2970,
Cc1cc(C(=O)N2CCN(c3cc(Cl)ccc3C)CC2)n(-c2ccccc2)n1 [3/33],3000,170,
Cc1ccc(-n2nc(C)cc2C(=O)N2CCN(c3cccc(C)c3)CC2)cc1 [3/28],7000,269,
Cc1cc(C(=O)N2CCN(c3cccc(Cl)c3Cl)CC2)n(-c2ccc(F)cc2)n1 [3/119],3100,562,
COc1ccccc1N1CCN(C(=O)c2cc(C)nn2-c2cccc(F)c2)CC1 [3/90],3000,33,
"O=C(c1cc(-c2cccnc2)nn1-c1ccccc1)N1CCN(c2cccc(Cl)c2)CC1 [Example E67, [4-(3-Chlorophenyl)piperazin-1-yl][2-phenyl-5-(pyrid-3-yl)-2H-pyrazol-3-yl]methanone]",2300,237,
CCOc1ccccc1N1CCN(C(=O)c2cc(C)nn2-c2cccc(F)c2)CC1 [3/98],7000,157,
Cc1cc(C(=O)N2CCN(c3ccc(C)c(C)c3)CC2)n(-c2cccc(F)c2)n1 [3/17],3500,159,
"Cc1cc(CN2CCN(c3cccc(Cl)c3)CC2)n(-c2ccccc2)n1 [Example E14, [4-(3-chlorophenyl)piperazin-1-yl](5-methyl-2-phenyl-2H-pyrazol-3-yl)methane]",12000,,3080
Cc1cc(C(=O)N2CCN(c3cccc(C(F)(F)F)c3)CC2)n(-c2ccc(Cl)cc2)n1 [3/72],7000,143,

# Further lines, with some results ahead:
IC50 (tubulin) [nM],IC50 (HCT116 cells; [1]) [nM],Compound,"IC50 (HCT116 cells; HCT-116, 48 hours at 37° C.) [nM]"
900,19,COc1cccc(N2CCN(C(=O)c3cc(C)nn3-c3ccc(F)cc3)CC2)c1 [3/63],
1800,87,COc1cccc(-n2nc(C)cc2C(=O)N2CCN(c3cccc(C)c3)CC2)c1 [3/3],
1800,3.6,COc1cccc(N2CCN(C(=O)c3cc(C)nn3-c3cccc(F)c3)CC2)c1 [3/96],
990,6.9,"COc1cc(OC)cc(N2CCN(C(=O)c3cc(CO)nn3-c3ccccc3)CC2)c1 [Example E73, [4-(3,5-Dimethoxyphenyl)piperazin-1-yl](3-hydroxymethyl-1-phenyl-1H-pyrazol-5-yl)methanone]",
990,10.5,"Cc1cc(C(=O)N2CCN(c3cccc(Cl)c3)CC2)n(-c2ccccc2C)n1 [Example E45, [4-(3-Chlorophenyl)piperazin-1-yl](5-methyl-2-o-tolyl-2H-pyrazol-3-yl)methanone]",
1300,43,Cc1cc(C(=O)N2CCN(c3ccc(Cl)c(Cl)c3)CC2)n(-c2ccc(F)cc2)n1 [3/146],
1500,6.6,COc1ccc(Cl)cc1N1CCN(C(=O)c2cc(C)nn2-c2ccccc2)CC1 [3/83],
1500,36,CCc1ccccc1N1CCN(C(=O)c2cc(C)nn2-c2cccc(Cl)c2)CC1 [3/68],
1300,73,Cc1cc(C(=O)N2CCN(c3ccc(Cl)c(Cl)c3)CC2)n(-c2cccc(Cl)c2)n1 [3/65],
1700,22.1,Cc1cc(C(=O)N2CCN(c3ccc(C)c(Cl)c3)CC2)n(-c2ccccc2)n1 [3/151],
1000,2.4,"COc1cc(OC)cc(N2CCN(C(=O)c3cc(N)nn3-c3ccccc3)CC2)c1 [Example E99, (5-Amino-2-phenyl-2H-pyrazol-3-yl)[4-(3,5-dimethoxyphenyl)piperazin-1-yl]methanone]",
1500,20.8,"Cc1ccnc(N2CCN(C(=O)c3cc(C)nn3-c3ccccc3)CC2)c1 [Example E31, (5-Methyl-2-phenyl-2H-pyrazol-3-yl)[4-(4-methylpyrid-2-yl)piperazin-1-yl]methanone]",
1200,75,Cc1cccc(-n2nc(C)cc2C(=O)N2CCN(c3ccc(Cl)c(Cl)c3)CC2)c1 [3/113],
1000,16.7,"Cc1cc(C(=O)N2CCN(c3cccc(NCCO)c3)CC2)n(-c2ccccc2)n1 [Example E103, {4-[3-(2-Hydroxyethylamino)phenyl]piperazin-1-yl}-(5-methyl-2-phenyl-2H-pyrazol-3-yl)methanone]",
800,32,Cc1cc(C(=O)N2CCN(c3cccc(C)c3C)CC2)n(-c2cccc(F)c2)n1 [3/94],
700,26.7,"Cc1cc(C(=O)N2CCN(c3cc(Cl)ccc3Br)CC2)n(-c2ccccc2)n1 [Example E77, [4-(2-Bromo-5-chlorophenyl)piperazin-1-yl](5-methyl-2-phenyl-2H-pyrazol-3-yl)methanone]",
